Assay results taken from patent publication US8691764B2, “Inhibitors of NF-κB activity” (The Research Foundation for the State University of New York, priority 2007, dated 2014).

How the values were obtained:
[1] = test system: survivin, Bcl-2, c-IAP-1, c-IAP-2, and TRAF-1; assay: Western blot of NF-κB-dependent anti-apoptotic gene products in BxPC-3 cells; format: cell-based, human; settings: at 8 h
Description: (§1) For Western blotting, the proteins from both cytoplasmic extracts and nuclear extracts were separated by SDS-polyacrylamide gel electrophoresis and transferred onto PVDF membranes (Millipore). The membranes were blocked in 5% nonfat dry milk-TBS-T (20 mM Tris-HCl, pH 7.5, 500 mM NaCl. 0.3% Tween 20) at room temperature (RT) for an hour and probed with anti-annexin 1, c-IAP-1, c-IAP-2, and TRAF-1 (Santa Cruz Biotechnology, Inc. CA), and anti-Bcl-2 antibodies (Cell Signaling Technology), in 5% nonfat dry milk-TBS-T at 4° C. overnight. The blots were washed three times with TBS-T for 5 min each wash and incubated with horseradish peroxidase-conjugated secondary antibody (Santa Cruz) in 5% nonfat dry milk-TBS-T at RT for an hour. After five washes with TBS-T, the blots were developed with the enhanced chemiluminescence system (ECL™ Western Blotting System, Amersham Biosciences) and exposed to x-ray film according to the manufacturer's instructions. Protein loading was normalized using anti-β-actin antibodies (Santa Cruz Biotechnology, Inc).

NF-κB = NF-κB activity in treated Min and wild-type mice; format: in vivo; settings: NO-ASA 100 mg/kg or Dex 10 mg/kg daily for 7 days
Description: To assess whether these changes occur in vivo, the inventors studied isolated small intestine epithelial cells from Min mice and the corresponding wild type mice C57BL/6J (of which the Min mice are a congenic derivative) treated with NO-ASA 100 mg/kg or Dex 10 mg/kg daily for 7 days. Min (multiple intestinal neoplasia), a mutant allele of the murine APC (adenomatous polyposis coli) locus, encodes a nonsense mutation at codon 850. Heterozygous Min mutants spontaneously develop tumors in the intestine and represent a model of intestinal carcinogenesis (M. Lipkin et al., Ann. N.Y. Acad. Sci. 889:14-19 (1999); A. Moser, H. Pitot, W. Dove, Science 247:322-324 (1990)). The levels of annexin 1 were increased in both Min and wild-type mice treated with either NO-ASA or Dex (FIG. 7A and FIG. 8A). The induction of annexin 1 by NO-ASA or Dex was accompanied by the inhibition of NF-κB activity (FIGS. 7B and 8B).
A mouse model of multiple intestinal neoplasia, the Min mice, and the congenic parent wild-type mice were used to test the in vivo action of NO-ASA in the induction of annexin 1. Both wild-type and Min mice were treated for 7 days with vehicle or NO-ASA 100 mg/kg. After 7 days of treatment, the mice were sacrificed and the epithelial cells were evaluated as in Example 6 by confocal microscopy.

annexin 1 = assay: Induction of annexin 1 in BxPC-3 cells, Western blot of nuclear and cytoplasmic extracts; format: cell-based, human
Description: The human pancreatic cancer cell line, BxPC-3, or the colon cancer cell line HT-29, both from ATCC (Manassas, Va.) were maintained and grown in RPMI 1640 or McCoy's 5A medium (Cellgro) supplemented with 10% fetal bovine serum (HyClone) and 1% penicillin/streptomycin (Cellgro) in a humidified incubator at 37° C. and 5% CO2.
The cell fractions were obtained as described by Andrews and Faller (N. C. Andrews and D. V. Faller, Nucleic Acids Res. 19:2499 (1991)) with modification. Briefly, the cells were pelleted after treatment and washed three times with PBS. The cell pellets were resuspended in ice cold buffer A (10 mM HEPES, pH 7.9, 10 mM KCl, 1.5 mM MgCI2, 0.5 mM DTT, 0.5 mM PMSF) with protease inhibitor cocktail (Sigma) and incubated on ice for 15 min with occasional mixing by gently tapping the tube. The cell lysates were centrifuged up to 5000 rpm for three times. The supernatants were collected as cytoplasmic extracts. Nuclear pellets were washed with buffer A and resuspended in buffer C (20 mM HEPES, pH 7.9, 450 mM NaCl, 1.5 mM MgCI2, 0.2 mM EDTA, 0.5 mM DTT, 0.5 mM PMSF, 25% Glycerol) with protease inhibitor cocktail (Sigma) and incubated on ice for 30 min with occasional mixing to extract nuclear proteins. Nuclear extracts were cleared by centrifugation (14,800 rpm for 10 min) and the supernatants were collected as nuclear extracts.
as §1

[2] = test system: BxPC-3 human pancreatic cancer cells; assay: MTT cell growth assay, BxPC-3; format: cell-based; settings: 24 hours
Description: The growth of the cells at 24 hours was determined using the MTT assay, which was carried out according to the manufacturer's protocol (Sigma). BxPC-3 cells were seeded in a 96-well plate and cultured in RPMI 1640 medium supplemented with 10% fetal bovine serum and 1% penicillin/streptomycin, as described above. […] MTT solution (M-0283) in an amount equal to 10% of the culture medium volume was then added to each well and the cells were incubated for 4 hours. The resulting MTT formazan crystals were dissolved by adding MTT Solvent (M-0408) directly to the culture in an amount equal to the original culture volume with gentle stirring and then quantitated by an ELISA Model 680 Microplate Reader (Biorad).

nitric oxide-donating aspirin [NO-ASA]
expression of NF-κB-dependent anti-apoptotic genes survivin, Bcl-2, c-IAP-1, c-IAP-2, TRAF-1 [1]: suppressed the expression | NF-κB activity (NF-κB; Min mice): inhibited NF-κB activity | NF-κB activity (NF-κB; wild-type mice): inhibited NF-κB activity | time of maximal annexin 1 levels in the cytoplasm (annexin 1; cytoplasm): 3 h | expression of annexin 1 (annexin 1; nuclear and cytoplasmic extracts): induced | time of peak annexin 1 levels in the nucleus (annexin 1; nucleus): 3 h | growth of BxPC-3 cells [2]: inhibits the growth
